Reference: patent publication US10875860B2, “Azaindenoisoquinoline compounds and uses thereof” (Purdue Research Foundation, priority 2016, dated 2020)
Where two headings read alike, the source gives them in different places.

Experiments:
[1] = target: T1, Top1 (Homo sapiens, UniProt P11387); test: Top1-mediated DNA cleavage assay; type: biochemical; parameters: Top1 inhibitory activity level / Top1 inhibitory activity score: key to the marks not given beside the values; conditions: for Enzyme Inhibitory Activity Top1: DNA cleavage relative to 1 μM MJ-III-65 (19) and 1 μM camptothecin (18); for Top1 inhibitory activity level: series 1
T1 sequence (P11387 1-765): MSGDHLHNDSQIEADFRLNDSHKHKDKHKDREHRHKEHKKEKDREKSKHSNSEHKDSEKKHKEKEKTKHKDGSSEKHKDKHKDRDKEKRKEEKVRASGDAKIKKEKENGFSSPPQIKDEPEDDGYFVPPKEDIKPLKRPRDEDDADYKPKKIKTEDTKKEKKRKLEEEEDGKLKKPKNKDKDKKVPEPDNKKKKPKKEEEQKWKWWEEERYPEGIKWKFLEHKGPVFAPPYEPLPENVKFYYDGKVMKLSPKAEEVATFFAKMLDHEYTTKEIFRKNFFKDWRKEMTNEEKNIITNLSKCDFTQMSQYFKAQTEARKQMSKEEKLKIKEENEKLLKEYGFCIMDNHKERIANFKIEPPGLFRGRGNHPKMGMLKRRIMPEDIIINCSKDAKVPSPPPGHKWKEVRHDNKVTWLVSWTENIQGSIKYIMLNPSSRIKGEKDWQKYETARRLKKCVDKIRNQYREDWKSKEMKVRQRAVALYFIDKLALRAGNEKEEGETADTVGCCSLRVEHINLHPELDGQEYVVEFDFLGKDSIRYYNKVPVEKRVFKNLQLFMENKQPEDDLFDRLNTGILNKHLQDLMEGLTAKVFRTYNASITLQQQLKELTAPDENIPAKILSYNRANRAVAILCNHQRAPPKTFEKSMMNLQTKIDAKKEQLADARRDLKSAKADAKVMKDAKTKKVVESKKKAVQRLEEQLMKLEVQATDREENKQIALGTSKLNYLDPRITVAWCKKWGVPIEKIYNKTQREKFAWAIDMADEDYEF

[2] = target: Tdp1 (Homo sapiens, UniProt Q9NUW8); test: Recombinant Tdp1 assay; type: biochemical
[3] = target: T2, recombinant human TDP2 (Homo sapiens, UniProt O95551); test: Recombinant Tdp2 assay; type: biochemical
T2 sequence (O95551 1-362): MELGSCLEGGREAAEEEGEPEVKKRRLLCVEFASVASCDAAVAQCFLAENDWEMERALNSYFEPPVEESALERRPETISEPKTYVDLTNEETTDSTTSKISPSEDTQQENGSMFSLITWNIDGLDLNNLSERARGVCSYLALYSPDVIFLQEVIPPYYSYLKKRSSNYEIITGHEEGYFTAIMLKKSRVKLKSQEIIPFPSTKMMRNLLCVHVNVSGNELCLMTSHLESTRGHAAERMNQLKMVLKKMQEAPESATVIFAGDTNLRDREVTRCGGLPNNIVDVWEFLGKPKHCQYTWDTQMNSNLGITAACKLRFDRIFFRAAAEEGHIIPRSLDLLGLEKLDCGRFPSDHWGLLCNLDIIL

[4] = test system: SN12C; test: NCI-60 cytotoxicity, SN12C; conditions: Homo sapiens, read-out: Cytotoxicity (GI50) Renal SN12C
[5] = test system: MCF-7; test: NCI-60 cytotoxicity, MCF-7; conditions: Homo sapiens, MCF7, read-out: Cytotoxicity (GI50) Breast MCF-7
[6] = test system: HOP-62; test: NCI-60 cytotoxicity, HOP-62; conditions: Homo sapiens, HOP-62, read-out: Cytotoxicity (GI50) Lung HOP-62
[7] = test system: SF-539; test: NCI-60 cytotoxicity, SF-539; conditions: Homo sapiens, SF-539, read-out: Cytotoxicity (GI50) CNS SF-539
[8] = test system: UACC-62; test: NCI-60 cytotoxicity, UACC-62; conditions: Homo sapiens, UACC-62, read-out: Cytotoxicity (GI50) Melanoma UACC-62
[9] = test system: OVCAR-3; test: NCI-60 cytotoxicity, OVCAR-3; conditions: Homo sapiens, OVCAR-3, read-out: Cytotoxicity (GI50) Ovarian Ovcar-3
[10] = test system: NCI-60 panel of human cancer cell lines; test: NCI-60 screen, mean graph midpoint over all cell lines; conditions: for GI50: Homo sapiens
[11] = test system: HCT-116; test: NCI-60 cytotoxicity, HCT-116; type: cell-based; conditions: Homo sapiens, single determinations, Table 2, read-out: Cytotoxicity (GI50) Colon HCT-116
[12] = test system: DU-145; test: NCI-60 cytotoxicity, DU-145; type: cell-based; conditions: Homo sapiens, single determinations, Table 2, read-out: Cytotoxicity (GI50) Prostate DU-145
[13] = semiquantitative scale, in duplicate, Table 1, read-out: Enzyme Inhibitory Activity Tdp1
[14] = semiquantitative scale, in duplicate, Table 1, read-out: Enzyme Inhibitory Activity Tdp2
[15] = read-out: Cytotoxicity (GI50) MGM
[16] = read-out: MGM (GI50 mean graph midpoint)
[17] = determined in duplicate, Table 2, read-out: Enzyme Inhibitory Activity Tdp1 (IC50)
[18] = read-out: Enzyme Inhibitory Activity Tdp2 (IC50)

Chain of Tdp1 (Q9NUW8 whole entry): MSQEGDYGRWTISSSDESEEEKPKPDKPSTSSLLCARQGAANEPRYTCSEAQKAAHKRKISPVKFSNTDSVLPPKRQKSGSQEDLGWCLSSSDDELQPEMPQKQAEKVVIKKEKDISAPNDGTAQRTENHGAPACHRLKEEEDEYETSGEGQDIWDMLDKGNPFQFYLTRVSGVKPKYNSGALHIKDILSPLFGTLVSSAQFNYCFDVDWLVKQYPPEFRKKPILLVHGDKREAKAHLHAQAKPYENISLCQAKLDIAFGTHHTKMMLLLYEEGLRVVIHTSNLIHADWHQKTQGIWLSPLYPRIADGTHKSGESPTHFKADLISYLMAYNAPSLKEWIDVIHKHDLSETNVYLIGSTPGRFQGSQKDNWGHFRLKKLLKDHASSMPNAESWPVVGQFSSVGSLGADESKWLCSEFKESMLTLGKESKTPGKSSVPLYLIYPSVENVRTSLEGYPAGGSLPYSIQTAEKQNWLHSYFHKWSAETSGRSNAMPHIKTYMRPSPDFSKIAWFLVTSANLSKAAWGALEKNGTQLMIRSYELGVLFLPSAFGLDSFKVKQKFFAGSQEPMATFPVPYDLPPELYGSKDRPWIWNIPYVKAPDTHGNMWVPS

Row | Enzyme Inhibitory Activity Top1 ([1]; Table 1) | Top1 inhibitory activity level [1] | IC50 [2, 13] [µM] | IC50 [3, 14] [µM] | melting point [°C] | Structure (SMILES) | GI50 [4] [µM] | GI50 [5] [µM] | GI50 [6] [µM] | GI50 [7] [µM] | GI50 [8] [µM] | GI50 [9] [µM] | GI50 [10, 15] [µM] | GI50 [10, 16] [µM] | cytotoxicity in the one-concentration preliminary testing ([10]; NCI-60 initial 1-concentration test) | Enzyme Inhibitory Activity Top1 ([1]; Table 2) | IC50 [2, 17] [µM] | IC50 ([3]; determined in duplicate, Table 2, read-out: Enzyme Inhibitory Activity Tdp2 (IC50)) [µM] | GI50 [11] [µM] | GI50 [12] [µM] | IC50 [3, 18] [µM]
1 | ++ | ++ | 12 to 37 | 37 to 111 | 170 to 172 | COc1cnc2c(c1)C(=O)c1c-2n(CCCBr)c(=O)c2cc([N+](=O)[O-])ccc12 [Compound 7, 7-Aza-6-(3-bromopropyl)-5,6-dihydro-9-methoxy-3-nitro-5,11-dioxo-11H-indeno[1,2-c]isoquinoline] | 0.269 | 0.046 | 0.058 | 0.279 | 0.082 | 0.248 | 0.112 |  |  |  |  |  |  |  | 
2 | ++ | ++ | 1 to 12 | 37 to 111 | 248 to 250 | COc1cnc2c(c1)C(=O)c1c-2n(CCCN2CCCC2)c(=O)c2cc([N+](=O)[O-])ccc12 [Compound 8, 7-Aza-5,6-dihydro-6-[3-(4-pyrrolidine-1-yl)propyl]-9-methoxy-3-nitro-5,11-dioxo-11H-indeno[1,2-c]isoquinoline] | 0.036 | < 0.01 | < 0.01 | 0.031 | 0.015 | 0.059 | 0.045 |  |  |  |  |  |  |  | 
3 | ++ | ++ | 12 to 37 | 12 to 37 | 211 to 213 | COc1cnc2c(c1)C(=O)c1c-2n(CCCN2CCN(C)CC2)c(=O)c2cc([N+](=O)[O-])ccc12 [Compound 9, 7-Aza-5,6-dihydro-6-[3-(3H-methylpiperazine-1-yl)propyl]-9-methoxy-3-nitro-5,11-dioxo-11H-indeno[1,2-c]isoquinoline] | 0.214 | 0.016 | 0.081 | 0.191 | 0.183 | 0.171 | 0.562 |  |  |  |  |  |  |  | 
4 | ++ | ++ | 12 to 37 | 37 to 111 | 134 to 135 | COc1cnc2c(c1)C(=O)c1c-2n(CCCN2CCNCC2)c(=O)c2cc([N+](=O)[O-])ccc12 [Compound 10, 7-Aza-5,6-dihydro-9-methoxy-3-nitro-5,11-dioxo-6-[3-(piperazine-1-yl)propyl]-11H-indeno[1,2-c]isoquinoline] | 0.23 | 0.036 | 0.065 | 0.355 | 0.175 | 1.19 | 0.316 |  |  |  |  |  |  |  | 
5 | +++ | +++ | 1 to 12 | 37 to 111 | 259 to 262 | CNCCCn1c2c(c3ccc([N+](=O)[O-])cc3c1=O)C(=O)c1cc(OC)cnc1-2 [Compound 11] | 0.046 | 1.06 | 0.03 | 0.051 | 0.02 | 0.174 | 0.741 | 0.714 |  |  |  |  |  |  | 
6 | ++++ | ++++ | 1 to 12 | 12 to 37 | 175 to 177 | COc1cnc2c(c1)C(=O)c1c-2n(CCCNC2=NCCS2)c(=O)c2cc([N+](=O)[O-])ccc12 [Compound 12, 7-Aza-5,6-dihydro-6-[3-((4,5-dihydrothiazol-2-yl)amino)propyl]-9-methoxy-3-nitro-5,11-dioxo-11H-indeno[1,2-c]isoquinoline] | < 0.01 | < 0.01 | 0.014 | 0.036 | < 0.01 | 0.137 | 0.058 |  |  |  |  |  |  |  | 
7 | +++ | +++ | > 111 | > 111 | 214 to 216 | COc1cnc2c(c1)C(=O)c1c-2n(CCCN2CCN(CCO)CC2)c(=O)c2cc([N+](=O)[O-])ccc12 [Compound 16, 7-Aza-5,6-dihydro-6-[3-(4-(2-hydroxyethyl)piperazin-1-yl)propyl]-9-methoxy-3-nitro-5,11-dioxo-11H-indeno[1,2-c]isoquinoline] |  | 0.142 | 2.76 | 1.7 | 1.22 | 1.46 | 1.66 | 1.65 |  |  |  |  |  |  | 
8 | ++ | ++ | 1 to 12 | 1 to 12 | 258 to 260 | COc1cnc2c(c1)C(=O)c1c-2n(CCCN2CCC(N)CC2)c(=O)c2cc([N+](=O)[O-])ccc12 [Compound 17, 6-[3-(4-Aminopiperidin-1-yl)propyl]-7-aza-5,6-dihydro-9-methoxy-3-nitro-5,11-dioxo-11H-indeno[1,2-c]isoquinoline] |  |  |  |  |  |  |  |  | low cytotoxicity |  |  |  |  |  | 
9 |  |  |  |  |  | COc1cnc2c(c1)C(=O)c1c-2n(CCCN2CCC(O)CC2)c(=O)c2cc(F)ccc12 [Compound 17d, 3-Fluoro-6-(3-(4-hydroxypiperidin-1-yl)propyl)-9-methoxy-5H-pyrido[3′,2′:4,5]-cyclopenta[1,2-c]-isoquinoline-5,11(6H)-dione] | 0.189 | 0.031 | 0.142 | 0.295 | 0.24 | 0.254 | 0.199 |  |  | + | > 111 | > 111 | 0.089 | 0.174 | 
10 |  |  |  |  |  | COc1cnc2c(c1)C(=O)c1c-2n(CCCN2CCNCC2)c(=O)c2cc(F)ccc12 [Compound 17e, 3-Fluoro-9-methoxy-6-(3-(piperazin-1-yl)propyl)-5H-pyrido[3′,2′:4,5]cyclopenta-[1,2-c]isoquinoline-5,11(6H)-dione] | 0.08 | 0.034 | 0.066 | 0.532 | 1.26 | 0.335 | 0.218 |  |  | + | > 111 |  | 0.091 | 0.062 | 107 ± 5.2
11 |  |  |  |  |  | CCNCCCn1c2c(c3ccc(F)cc3c1=O)C(=O)c1cc(OC)cnc1-2 [Compound 17h, 6-(3-(Ethylamino)propyl)-3-fluoro-9-methoxy-5H-pyrido[3′,2′:4,5]cyclopenta[1,2-c]isoquinoline-5,11(6H)-dione] | 0.151 | 0.042 | 0.149 | 0.32 | 0.341 | 0.282 | 0.229 |  |  | ++ | > 111 |  | 0.136 | 0.215 | 104
